Legend:
thyroid receptor α (trα) = assay: trα gene expression (qPCR) in exposed zebrafish embryos; assay type: in vivo, zebrafish (Danio rerio); conditions: exposed 48–120 hpf
Description: (§1) Twenty embryos per treatment and replicate were exposed to 3–7 different concentrations of chemical in glass. […] Between 3 and 6 biological replicates were performed per compound and condition in, at least, two independent experiments.
(§2) At 120 hpf, 20 embryos per condition and replicate were pooled and homogenized in TRIreagent and total RNA extracted following the manufacturer’s protocol. Total RNA concentration was estimated by spectrophotometric absorption at 260 nm in a NanoDrop Spectrophotometer ND-1000 (NanoDrop Technologies; Wilmington, DE, USA). One hundred nanograms of RNA were retrotranscribed to cDNA by reverse transcriptase (Superscript III RT-Enzyme, Invitrogen, Carlsbad, CA, USA) and stored at −20 °C. Aliquots 10-times diluted of cDNA were used to quantify the amounts of specific transcripts in a Lightcycler® 480 system (Roche, Basel, Switzerland) by the SYBR GREEN method. Annealing temperature used in amplification reactions was 60 °C in all cases. […] Relative expression levels were quantified using the ΔΔCt method [82] and ef1a as reference gene [83]

transthyretin (ttr) = assay: ttr gene expression (qPCR) in exposed zebrafish embryos; assay type: in vivo, zebrafish (Danio rerio); conditions: exposed 48–120 hpf
Description: as §1, §2

[1] = acute toxicity test from 48–120 hpf based on the OECD FET test; assay type: in vivo, zebrafish (Danio rerio); conditions: in vivo; zebrafish embryos exposed 48–120 hpf
Description: Twenty embryos per treatment were exposed to 5 concentrations of compound of interest in a 10× dilution factor from 48–120 hpf, which is the experimental time in which EDCs will be screened posteriorly. Embryos were exposed from 48–120 hpf rather than 0–96 hpf or 0–120 hpf to avoid unspecific toxicity outside of the EDC testing period, which have been chosen on the basis that endocrine pathways, e.g., thyroid metabolism, are not fully functional until 40–55 hpf in zebrafish embryos. Stock solutions of chemicals to be tested were freshly prepared in exposure medium. The highest concentration for each compound was selected according to its water solubility (Table S1). Exposures were performed in glass vessels to assure maximum bioavailability for hydrophobic compounds, and medium was not exchanged during the experiment.

[2] = system: iodothyronine deiodinase 2 (dio2); assay: dio2 gene expression (qPCR) in exposed zebrafish embryos; assay type: in vivo, zebrafish (Danio rerio)
Description: as §1, §2

dio2 - mRNA = system: dio2 - mRNA; set-up: method as in earlier work; conditions: 0-120 h, ref [33] (supplement list), cited from earlier work

CCCCC(O)(Cn1cncn1)c1ccc(Cl)cc1Cl (stereo not shown) [HEX, hexaconazole]
effect on trα expression (thyroid receptor α (trα)): remained unaltered | effect on ttr expression (transthyretin (ttr)): remained unaltered | LC50 [1]: 23.4 µM | EC50 ([2]; Danio rerio, zebrafish embryos exposed 48–120 hpf, mRNA by qPCR, read-out: EC50 dio2): 2.22 µM | LogEC50 (dio2 - mRNA) ([2]; log of EC50 in μM, 48-120 h, our study): 0.3464 | EC50 (dio2 - mRNA; * mean of an approximate range): ~3.98 µM | LogEC50 (dio2 - mRNA) (dio2 - mRNA; log of EC50 in μM): 0.5999

From publication PMC6479714, “Multiplex Analysis Platform for Endocrine Disruption Prediction Using Zebrafish” (International Journal of Molecular Sciences, 2019)
